The assay deals with Dipeptidyl peptidase 4 (Homo sapiens) (UniProt P27487).

For one molecule, IC50 results are on record in ChEMBL document CHEMBL1275279, “Synthesis, biological assay in vitro and molecular docking studies of new imidazopyrazinone derivatives as potential dipeptidyl peptidase IV inhibitors” (Eur J Med Chem, 2010).

Structures are written as SMILES.

Dipeptidyl peptidase 4 (Homo sapiens), sequence (P27487 whole entry, looked up): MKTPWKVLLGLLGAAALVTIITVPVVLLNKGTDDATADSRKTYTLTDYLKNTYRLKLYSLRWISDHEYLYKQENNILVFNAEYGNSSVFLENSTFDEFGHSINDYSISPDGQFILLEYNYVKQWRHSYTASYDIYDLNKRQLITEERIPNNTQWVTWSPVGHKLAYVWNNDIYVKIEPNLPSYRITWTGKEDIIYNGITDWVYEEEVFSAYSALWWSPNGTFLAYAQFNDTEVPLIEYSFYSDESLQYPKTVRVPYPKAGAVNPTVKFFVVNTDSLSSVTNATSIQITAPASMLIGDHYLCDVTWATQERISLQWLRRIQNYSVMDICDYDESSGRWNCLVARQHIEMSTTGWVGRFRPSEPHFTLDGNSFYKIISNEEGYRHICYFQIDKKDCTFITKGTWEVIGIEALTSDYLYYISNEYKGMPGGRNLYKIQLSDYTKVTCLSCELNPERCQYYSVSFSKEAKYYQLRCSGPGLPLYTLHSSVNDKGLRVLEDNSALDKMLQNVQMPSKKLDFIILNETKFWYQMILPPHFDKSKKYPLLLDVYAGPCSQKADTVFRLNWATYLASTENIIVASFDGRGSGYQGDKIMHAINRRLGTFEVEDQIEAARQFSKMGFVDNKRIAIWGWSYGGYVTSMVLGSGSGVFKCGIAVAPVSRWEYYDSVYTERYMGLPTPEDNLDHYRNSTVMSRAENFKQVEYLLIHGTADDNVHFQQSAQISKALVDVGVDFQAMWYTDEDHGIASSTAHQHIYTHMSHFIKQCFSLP
Description: Inhibition of human seminal fluid DPP4

Regarding `NC(=O)c1cccc(CN2CC3CN(C(=O)C[C@H](N)Cc4cc(F)c(F)cc4F)CCN3C2=O)c1` (stereo partly specified), it took 78 nM to reach half-maximal inhibition (IC50).
